The values below come from patent US20140140991A1, “METHODS OF TREATING A DISEASE OR DISORDER ASSOCIATED WITH BRUTON'S TYROSINE KINASE” (Celgene Avilomics Research, Inc., priority 2012, published 2014).

As a reminder, the solubility is the dissolved amount per volume that the medium holds. Read a low solubility as little dissolved substance.

Data set [1] in a line: Safety and pharmacokinetics, single dose studies in healthy subjects. It counts as in vivo, human.
Data set [2] can be described thus: Environmental stability (heat, acid, base). Format: physicochemical.
A short description of the next data set: physchem. The settings on record: pH 3, aqueous buffer.
In a further data set the target is Syk (Homo sapiens, UniProt P43405). The settings on record: DLBCL, CLL, and mantle cell lymphoma; cited from earlier work.

Molecules are shown by their SMILES.

On to `C=CC(=O)Nc1cccc(Nc2nc(Nc3ccc(OCCOC)cc3)ncc2F)c1` [Compound 1, N-(3-(5-fluoro-2-(4-(2-methoxyethoxy)phenylamino)pyrimidin-4-ylamino)phenyl)acrylamide], for which, in data set [1], the “pharmacokinetics (PK)” value is given as “predictable pharmacokinetics” and the safety result is “adequate safety”.
For `C=CC(=O)Nc1cccc(Nc2nc(Nc3ccc(OCCOC)cc3)ncc2F)c1.O=S(=O)(O)c1ccccc1` [N-(3-(5-fluoro-2-(4-(2-methoxyethoxy)phenylamino)pyrimidin-4-ylamino)phenyl)acrylamide benzenesulfonic acid salt], in data set [2], the “environmental instabilities (i.e. heat, acid, base) that require special handling” value is given as “no environmental instabilities”. Further, the solubility in “physchem” came out at 400 µg/mL.
On to `COc1cc(Nc2ncc(F)c(Nc3ccc4c(n3)N(COP(=O)(O)O)C(=O)C(C)(C)O4)n2)cc(OC)c1OC` [fostamatinib disodium], for which the clinical responses result on Syk was “produced clinical responses”.
